Laboratory results reported in PubChem BioAssay AID1963974 (Molecular Pharmacology Branch, DTP, NCI, 2024).

Tested on: 648629-189-R-J1-PDC spheroids with HUVEC/MSC, viability
Experiment: Anticancer human tumor 648629-189-R-J1-PDC patient-derived bladder carcinoma cell line growth inhibition [PI3K]
Settings: for viability, T/C: stronger effect = lower value
Source text: Combinatorial screen of targeted agents with the PI3K inhibitors inavolisib, alpelisib, duvelisib, and copanlisib in multi-cell type tumor spheroids
A high-throughput screen of multi-cell type tumor spheroids was designed to identify active combinations of targeted small molecules and PI3K pathway inhibitors. Complex spheroids include a stromal component modeled by human endothelial cells (HUVEC) and fibroblasts modeled by human mesenchymal stem cells (MSCs). The concentration ranges selected for each drug and investigational agent were based upon clinically achievable concentrations if the clinical Cmax of the agent was known.
Compounds. The drugs and investigational agents: inavolisib (NSC800729), alpelisib (NSC765974), duvelisib (NSC772469), copanlisib (NSC816437), ipatasertib (NSC767898), afuresertib (NSC778305), talazoparib (NSC767125), sapanisertib (NSC764658), selumetinib (NSC741078), tovorafenib (DAY101, NSC766906), vemurafenib (NSC761431), ravoxertinib (NSC781343), sotorasib (NSC818433), MRTX1133 (NSC 836407), abemaciclib (NSC 768073), palbociclib (NSC758247), venetoclax (NSC 766270), SY5609 (NSC837396), enzalutamide (NSC755605), and darolutamide (NSC825331), were obtained from the National Cancer Institute (NCI) Developmental Therapeutics Program Chemical Repository. The FDA-approved anticancer drug set is available from the NCI Developmental Therapeutics Program. […] The stock solutions were prepared in dimethyl sulfoxide (DMSO, Sigma-Aldrich, St. Louis, MO, cat. D2650) at 800-fold the tested concentration and stored at -70 degrees C prior to their use. All drugs and investigational agents were tested over a range starting from a high concentration at or near the clinical Cmax and decreasing in half-log increments. If the clinical Cmax for an agent had not been determined, the highest concentration tested was 10 microM.
Cell Culture. All cells were maintained in an incubator at 37 degrees C and 5% CO2 with 95% humidity. The PDC lines were cultured according to standard operating procedures established by the NCI PDMR (https://pdmr.cancer.gov/sops/default.htm). All PDCs were thawed and cultured in Matrigel-coated flasks prepared with a working solution of 1X Ham's F-12 nutrient mix, without supplementation (Invitrogen, Waltham, MA, cat. 11765054), 100 U/mL penicillin-streptomycin (Invitrogen, cat. 15140122), and 2.5% Matrigel (Corning Inc., Corning, NY, cat. 354248) for the first three passages. The 354836-022-R-J1-PDC, 475296-252-R-J1-PDC, and 997726-040-R-J2-PDC lines were cultured in 6A media, which includes advanced DMEM/F-12 (Thermo Fisher Scientific, cat. 12634028), 10 mM HEPES (Thermo Fisher Scientific, cat. 15630080), 1X GlutaMAX supplement (Thermo Fisher Scientific, cat. 35050061), 0.1 mg/mL primocin (InvivoGen, San Diego, CA, cat. ant-pm-2), 10% defined fetal bovine serum, heat inactivated (HyClone Laboratories Inc., Logan, UT, cat. SH30070.03HI), 50% L-WRN conditioned media (ATCC, cat. CRL-3276), 1.25 mM N-Acetyl-L-cysteine (Sigma-Aldrich, cat. A9165), 10 mM nicotinamide (Sigma-Aldrich, cat. N0636), 1X B-27 supplement (Thermo Fisher Scientific, cat. 17504044), 1X N-2 supplement (Thermo Fisher Scientific, cat. 17502048), and 10 microM Y-27632 dihydrochloride (Tocris Bioscience, Bristol, United Kingdom, cat. 1254). The 624824-186-R-J2-PDC line was cultured in 6C/Colon 1B media, which includes all 6A media components plus 50 ng/mL human EGF recombinant protein (Thermo Fisher Scientific, cat. PHG0311). […]

[1] = curve of first compound, second compound 0.0316 µM
[2] = curve of first compound, second compound 0.1 µM
[3] = curve of first compound, second compound 0.316 µM
[4] = curve of first compound, second compound 1 µM
[5] = second compound 0.0316 µM, first compound 0.0316 µM
[6] = second compound 0.0316 µM, first compound 0.1 µM
[7] = second compound 0.0316 µM, first compound 0.316 µM
[8] = second compound 0.0316 µM, first compound 1 µM
[9] = second compound 0.0316 µM, first compound 3.16 µM
[10] = second compound 0.0316 µM, first compound 10 µM
[11] = second compound 0.1 µM, first compound 0.0316 µM
[12] = second compound 0.1 µM, first compound 0.1 µM
[13] = second compound 0.1 µM, first compound 0.316 µM
[14] = second compound 0.1 µM, first compound 1 µM
[15] = second compound 0.1 µM, first compound 3.16 µM
[16] = second compound 0.1 µM, first compound 10 µM
[17] = second compound 0.316 µM, first compound 0.0316 µM
[18] = second compound 0.316 µM, first compound 0.1 µM
[19] = second compound 0.316 µM, first compound 0.316 µM
[20] = second compound 0.316 µM, first compound 1 µM
[21] = second compound 0.316 µM, first compound 3.16 µM
[22] = second compound 0.316 µM, first compound 10 µM
[23] = second compound 1 µM, first compound 0.0316 µM
[24] = second compound 1 µM, first compound 0.1 µM
[25] = second compound 1 µM, first compound 0.316 µM
[26] = second compound 1 µM, first compound 1 µM
[27] = second compound 1 µM, first compound 3.16 µM
[28] = second compound 1 µM, first compound 10 µM
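Further: spheroids exposed to agents for seven days before reading.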
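Wherever viability, T/C is given: percent of vehicle control luminescence where 100% = DMSO treated spheroids.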

C=CC(=O)N1CCN(c2nc(=O)n(-c3c(C)ccnc3C(C)C)c3nc(-c4c(O)cccc4F)c(F)cc23)C(C)C1 (stereo unspecified) + COc1c(OCCCN2CCOCC2)ccc2c3n(c(=NC(=O)c4cnc(N)nc4)nc12)CCN3
IC50 (curve of first compound, second compound 0.00316 µM): > 10 µM
IC50 (curve of first compound, second compound 0.01 µM): > 10 µM
IC50 [1]: > 10 µM
IC50 [2]: > 10 µM
IC50 [3]: < 0.0316 µM
IC50 [4]: < 0.0316 µM
viability, T/C (second compound 0.00316 µM, first compound 0.0316 µM): 114%
viability, T/C (second compound 0.00316 µM, first compound 0.1 µM): 108%
viability, T/C (second compound 0.00316 µM, first compound 0.316 µM): 114%
viability, T/C (second compound 0.00316 µM, first compound 1 µM): 108%
viability, T/C (second compound 0.00316 µM, first compound 3.16 µM): 119%
viability, T/C (second compound 0.00316 µM, first compound 10 µM): 99.9%
viability, T/C (second compound 0.01 µM, first compound 0.0316 µM): 94.3%
viability, T/C (second compound 0.01 µM, first compound 0.1 µM): 91.3%
viability, T/C (second compound 0.01 µM, first compound 0.316 µM): 101%
viability, T/C (second compound 0.01 µM, first compound 1 µM): 113%
viability, T/C (second compound 0.01 µM, first compound 3.16 µM): 115%
viability, T/C (second compound 0.01 µM, first compound 10 µM): 79.1%
viability, T/C [5]: 83.4%
viability, T/C [6]: 81.9%
viability, T/C [7]: 104%
viability, T/C [8]: 94.6%
viability, T/C [9]: 107%
viability, T/C [10]: 87.8%
viability, T/C [11]: 57.3%
viability, T/C [12]: 64.5%
viability, T/C [13]: 63.5%
viability, T/C [14]: 79.1%
viability, T/C [15]: 81.3%
viability, T/C [16]: 77.2%
viability, T/C [17]: 18.8%
viability, T/C [18]: 22.1%
viability, T/C [19]: 29%
viability, T/C [20]: 25.5%
viability, T/C [21]: 38%
viability, T/C [22]: 35.3%
viability, T/C [23]: 3.7%
viability, T/C [24]: 4.13%
viability, T/C [25]: 4.67%
viability, T/C [26]: 6.38%
viability, T/C [27]: 7.09%
viability, T/C [28]: 8.01%

C=CC(=O)N1CCN(c2nc(=O)n(-c3c(C)ccnc3C(C)C)c3nc(-c4c(O)cccc4F)c(F)cc23)C(C)C1 (stereo unspecified) + Cc1nc(NC(=O)N2CCCC2C(N)=O)sc1-c1ccnc(C(C)(C)C(F)(F)F)c1
IC50 [1]: > 10 µM
IC50 [2]: > 10 µM
IC50 [3]: > 10 µM
IC50 [4]: > 10 µM
IC50 (curve of first compound, second compound 3.16 µM): > 10 µM
IC50 (curve of first compound, second compound 10 µM): < 0.0316 µM
viability, T/C [5]: 99%
viability, T/C [6]: 101%
viability, T/C [7]: 107%
viability, T/C [8]: 105%
viability, T/C [9]: 113%
viability, T/C [10]: 82.8%
viability, T/C [11]: 92.2%
viability, T/C [12]: 102%
viability, T/C [13]: 107%
viability, T/C [14]: 99%
viability, T/C [15]: 106%
viability, T/C [16]: 90.3%
viability, T/C [17]: 83.5%
viability, T/C [18]: 95%
viability, T/C [19]: 95.6%
viability, T/C [20]: 96.3%
viability, T/C [21]: 107%
viability, T/C [22]: 84.7%
viability, T/C [23]: 73.4%
viability, T/C [24]: 82.7%
viability, T/C [25]: 87.5%
viability, T/C [26]: 86.5%
viability, T/C [27]: 88.2%
viability, T/C [28]: 79.7%
viability, T/C (second compound 3.16 µM, first compound 0.0316 µM): 61.2%
viability, T/C (second compound 3.16 µM, first compound 0.1 µM): 57.5%
viability, T/C (second compound 3.16 µM, first compound 0.316 µM): 65%
viability, T/C (second compound 3.16 µM, first compound 1 µM): 72%
viability, T/C (second compound 3.16 µM, first compound 3.16 µM): 72.5%
viability, T/C (second compound 3.16 µM, first compound 10 µM): 70.8%
viability, T/C (second compound 10 µM, first compound 0.0316 µM): 39.5%
viability, T/C (second compound 10 µM, first compound 0.1 µM): 40.7%
viability, T/C (second compound 10 µM, first compound 0.316 µM): 42.4%
viability, T/C (second compound 10 µM, first compound 1 µM): 41.5%
viability, T/C (second compound 10 µM, first compound 3.16 µM): 47.1%
viability, T/C (second compound 10 µM, first compound 10 µM): 38.4%

CC(Nc1ncnc2nc[nH]c12)c1cc2cccc(Cl)c2c(=O)n1-c1ccccc1 (stereo unspecified)
viability, T/C (compound 0.0316 µM): 104% [middle of 8 runs]
viability, T/C (compound 0.1 µM): 104% [middle of 8 runs]
viability, T/C (compound 0.316 µM): 103% [middle of 8 runs]
viability, T/C (compound 1 µM): 97.5% [middle of 8 runs]
viability, T/C (compound 3.16 µM): 97.1% [middle of 8 runs]
viability, T/C (compound 10 µM): 90.1% [middle of 8 runs]
IC50 (compound alone, run of 04/25/2023): > 10 µM
